Reference: US20240368150A1 (Hoffmann-La Roche Inc., priority 2021, published 2024)
Read-outs that look alike come from different tables or passages of the source.

Legend:
primary human T-cells [1] = assay: Proliferation assay after 5 days (CellTiter-Glo, CD3 stimulation; PBS counter screen); assay type: cell-based; conditions: CD3 stimulation; for Emax / Emax proliferation (% activation): 5 days, normalized to reference compound A1 as stimulator control = 100%, DMSO neutral control; for Emax: read-out: Emax proliferation (% activation); for EC50: primary human T-cells, CellTiter-Glo after 5 days, EC50 of fitted sigmoidal curve, read-out: Tcell Proliferation CD3 EC50
Method: Compounds are then added (see next section) to medium only plates.
Cells are assessed for proliferation 5 days later by measuring […] using CellTiterGlo (Promega).
After 5 days, for detection of ATP which is directly proportional to the number of cells present per well, the CellTiter-Glo® 2.0 Reagent is used. After visual control for toxicity or precipitations of the tested compounds, the plates are equilibrated to room temperature for 45 minutes. CellTiter-Glo® 2.0 Reagent is equilibrated to room temperature as well. After equilibration, an equal amount of CellTiter-Glo reagent is added to the cells (80 μl/well) with an electronic multichannel pipette. Plates are placed on a rocking platform for 15 minutes at room temperature. After incubation, the bottom of the plates is sealed with backing tape. Luminescence is measured with PHERAstar FSX (interval time 0.5 sec, gain 3000, focal height 15 mm) and exported as CSV file for analysis in Genedata screener.
Compounds which activate unstimulated cells (see IL2 measurements) or compounds which negatively affected viability were flagged.

primary human T-cells [2] = system: primary human T-cells

EC50 (primary human T-cells [2]) | SMILES | Emax (primary human T-cells [1]; Homo sapiens, T-cell, 120 h) | EC50 (primary human T-cells [1]) | Emax proliferation (% activation) (primary human T-cells [1]) | EC50 (primary human T-cells [1]; Homo sapiens, T-cell, 120 h)
799 nM | CC(Nc1nnc(-c2cc3c(cc2F)S(=O)(=O)C[C@H](N)C(=O)N3Cc2ccc(Cl)cc2)o1)C1CC1(F)F (single isomer, unassigned) [Example 495] | 93% | 263 nM | – | –
> 10000 nM | CC(Nc1nnc(-c2cc3c(cc2F)S(=O)(=O)C[C@H](N)C(=O)N3Cc2ccc(Cl)cc2)o1)C1CC1(F)F (single isomer, unassigned) [Example 496] | – | 1150 nM | 91 % activation | –
5810 nM | N[C@H]1C[S+]([O-])c2cc(F)c(-c3noc(N4CCOCC4)n3)cc2N(Cc2ccc(Cl)cc2)C1=O (single isomer, unassigned; epimer a) [Example 209] | 92% | – | – | 4100 nM
3080 nM | CC(C)(C)c1nc(-c2cc3c(cc2F)[S+]([O-])C[C@H](N)C(=O)N3Cc2ccc(Cl)cc2)no1 (single isomer, unassigned; epimer a) [Example 340] | 121% | 1350 nM | – | –
> 10000 nM | CN1CC(c2nc(-c3cc4c(cc3F)[S+]([O-])C[C@H](N)C(=O)N4Cc3ccc(Cl)cc3)no2)CC(F)(F)C1 (single isomer, unassigned; epimer a) [Example 342] | – | 4850 nM | 80 % activation | –
> 10000 nM | COC(F)(c1nnc(-c2ccc3c(c2)N(Cc2ccc(OC(F)(F)F)cc2)C(=O)[C@@H](N)C[S+]3[O-])o1)C(F)(F)F (single isomer, unassigned; epimer a) [Example 425] | – | – | 81 % activation | 1880 nM
> 10000 nM | N[C@H]1C[S+]([O-])c2ccc(-c3nnc(CC(F)(F)F)o3)cc2N(Cc2ccc(OC(F)(F)F)cc2)C1=O (single isomer, unassigned; epimer a) [Example 427] | 26% | > 10000 nM | – | –
7170 nM | N[C@H]1C[S+]([O-])c2cc(F)c(-c3noc(N4CCOC5(CC5)C4)n3)cc2N(Cc2ccc(Cl)cc2)C1=O (single isomer, unassigned; epimer b) [Example 210] | – | 1550 nM | – | –
1300 nM | COC(F)(c1nc(-c2cc3c(cc2F)[S+]([O-])C[C@H](N)C(=O)N3Cc2ccc(Cl)cc2)no1)C(F)(F)F (single isomer, unassigned; epimer b) [Example 339] | – | 421 nM | 141 % activation | –
> 10000 nM | CC(C)(C)c1nc(-c2cc3c(cc2F)[S+]([O-])C[C@H](N)C(=O)N3Cc2ccc(Cl)cc2)no1 (single isomer, unassigned; epimer b) [Example 341] | – | 3010 nM | 105 % activation | –
4830 nM | CN1CC(c2nc(-c3cc4c(cc3F)[S+]([O-])C[C@H](N)C(=O)N4Cc3ccc(Cl)cc3)no2)CC(F)(F)C1 (single isomer, unassigned; epimer b) [Example 343] | – | 2620 nM | 97 % activation | –
1290 nM | COC(F)(c1nnc(-c2ccc3c(c2)N(Cc2ccc(OC(F)(F)F)cc2)C(=O)[C@@H](N)C[S+]3[O-])o1)C(F)(F)F (single isomer, unassigned; epimer b) [Example 426] | – | 1400 nM | 109 % activation | –
– | CCc1cn(-c2cc3c(cc2F)SC[C@H](N)C(=O)N3Cc2ccc(Cl)cc2)nn1 [Example 1, (3R)-3-amino-5-[(4-chlorophenyl)methyl]-7-(4-ethyltriazol-1-yl)-8-fluoro-2,3-dihydro-1,5-benzothiazepin-4-one] | 33% | – | – | > 20000 nM
– | N[C@H]1CSc2cc(F)c(-n3cc(Cc4ccc(Cl)cc4)nn3)cc2N(Cc2ccc(Cl)cc2)C1=O [Example 2, (3R)-3-amino-5-[(4-chlorophenyl)methyl]-7-[4-[(4-chlorophenyl)methyl]triazol-1-yl]-8-fluoro-2,3-dihydro-1,5-benzothiazepin-4-one] | 34% | – | – | > 20000 nM
– | N[C@H]1CS(=O)(=O)c2cc(F)c(-n3cc(Cc4ccc(Cl)cc4)nn3)cc2N(Cc2ccc(Cl)cc2)C1=O [Example 4, (3R)-3-amino-5-[(4-chlorophenyl)methyl]-7-[4-[(4-chlorophenyl)methyl]triazol-1-yl]-8-fluoro-1,1-dioxo-2,3-dihydro-1λ^6,5-benzothiazepin-4-one] | 168% | – | – | 1050 nM
– | CCn1nnc(-c2cc3c(cc2F)S(=O)(=O)C[C@H](N)C(=O)N3Cc2ccc(Cl)cc2)n1 [Example 7, (3R)-3-amino-5-[(4-chlorophenyl)methyl]-7-(2-ethyltetrazol-5-yl)-8-fluoro-1,1-dioxo-2,3-dihydro-1λ^6,5-benzothiazepin-4-one] | 264% | – | – | 2750 nM
– | N[C@H]1CS(=O)(=O)c2cc(F)c(-c3nc(C4CC4)no3)cc2N(Cc2ccc(Cl)cc2)C1=O [Example 40, (3R)-3-amino-5-[(4-chlorophenyl)methyl]-7-(3-cyclopropyl-1,2,4-oxadiazol-5-yl)-8-fluoro-1,1-dioxo-2,3-dihydro-1λ^6,5-benzothiazepin-4-one] | 34% | – | – | > 20000 nM
– | CCCc1noc(-c2cc3c(cc2F)S(=O)(=O)C[C@H](N)C(=O)N3Cc2ccc(Cl)cc2)n1 [Example 42, (3R)-3-Amino-5-[(4-chlorophenyl)methyl]-8-fluoro-1,1-dioxo-7-(3-propyl-1,2,4-oxadiazol-5-yl)-2,3-dihydro-1λ^6,5-benzothiazepin-4-one] | 80% | – | – | 1310 nM
– | N[C@H]1CS(=O)(=O)c2cc(F)c(-c3nc(Cc4ccc(Cl)cc4)no3)cc2N(Cc2ccc(Cl)cc2)C1=O [Example 44, (3R)-3-Amino-5-[(4-chlorophenyl)methyl]-7-[3-[(4-chlorophenyl)methyl]-1,2,4-oxadiazol-5-yl]-8-fluoro-1,1-dioxo-2,3-dihydro-1λ^6,5-benzothiazepin-4-one] | 122% | – | – | 702 nM
– | N[C@H]1CS(=O)(=O)c2cc(F)c(-c3nc(COCc4ccccc4)no3)cc2N(Cc2ccc(Cl)cc2)C1=O [Example 45, (3R)-3-Amino-7-[3-(benzyloxymethyl)-1,2,4-oxadiazol-5-yl]-5-[(4-chlorophenyl)methyl]-8-fluoro-1,1-dioxo-2,3-dihydro-1λ^6,5-benzothiazepin-4-one] | 80% | – | – | 1970 nM
– | NCc1noc(-c2cc3c(cc2F)S(=O)(=O)C[C@H](N)C(=O)N3Cc2ccc(Cl)cc2)n1 [Example 50, (3R)-3-amino-7--[3-(aminomethyl)-1,2,4-oxadiazol-5-yl]-5-[(4-chlorophenyl)methyl]-8-fluoro-1,1-dioxo-2,3-dihydro-1λ^6,5-benzothiazepin-4-one] | 40% | – | – | > 20000 nM
– | CCc1noc(-c2ccc3c(c2)N(Cc2ccc(Cl)cc2)C(=O)[C@@H](N)CS3(=O)=O)n1 [Example 51, (3R)-3-amino-5-[(4-chlorophenyl)methyl]-7-(3-ethyl-1,2,4-oxadiazol-5-yl)-1,1-dioxo-2,3-dihydro-1λ^6,5-benzothiazepin-4-one] | 94% | – | – | 2690 nM
– | N[C@H]1CS(=O)(=O)c2cc(F)c(-c3nnc(CCCC(F)(F)F)o3)cc2N(Cc2ccc(Cl)cc2)C1=O [Example 79, (3R)-3-Amino-5-[(4-chlorophenyl)methyl]-8-fluoro-1,1-dioxo-7-[5-(4,4,4-trifluorobutyl)-1,3,4-oxadiazol-2-yl]-2,3-dihydro-1λ^6,5-benzothiazepin-4-one] | 154% | – | – | 173 nM
– | CCc1nc(-c2cc3c(cc2F)S(=O)(=O)C[C@H](N)C(=O)N3Cc2ccc(Cl)cc2)no1 [Example 290, (3R)-3-amino-5-[(4-chlorophenyl)methyl]-7-(5-ethyl-1,2,4-oxadiazol-3-yl)-8-fluoro-1,1-dioxo-2,3-dihydro-1λ^6,5-benzothiazepin-4-one] | 139% | – | – | 744 nM
– | CC(C)(NCC(F)(F)F)c1nc(-c2cc3c(cc2F)S(=O)(=O)C[C@H](N)C(=O)N3Cc2ccc(Cl)cc2)no1 [Example 298, (3R)-3-amino-5-[(4-chlorophenyl)methyl]-8-fluoro-7-[5-[1-methyl-1-(2,2,2-trifluoroethylamino)ethyl]-1,2,4-oxadiazol-3-yl]-1,1-dioxo-2,3-dihydro-1λ^6,5-benzothiazepin-4-one] | 162% | – | – | –
– | COC(=O)N1CCC(C)(c2nc(-c3cc4c(cc3F)S(=O)(=O)C[C@H](N)C(=O)N4Cc3ccc(Cl)cc3)no2)CC1 [Example 307, methyl 4-[3-[(3R)-3-amino-5-[(4-chlorophenyl)methyl]-8-fluoro-1,1,4-trioxo-2,3-dihydro-1λ^6,5-benzothiazepin-7-yl]-1,2,4-oxadiazol-5-yl]-4-methyl-piperidine-1-carboxylate] | 143% | – | – | –
– | CC(C)(C)c1ncn(-c2cc3c(cc2F)S(=O)(=O)C[C@H](N)C(=O)N3Cc2ccc(Cl)cc2)n1 [Example 526, (3R)-3-amino-7-(3-tert-butyl-1,2,4-triazol-1-yl)-5-[(4-chlorophenyl)methyl]-8-fluoro-1,1-dioxo-2,3-dihydro-1λ^6,5-benzothiazepin-4-one] | 125% | – | – | –
